Molecules are shown by their SMILES. ≈ marks a conversion by molar mass, not a printed value. Like-named read-outs stand apart in the source and are kept apart here.

This note sets out measurements from patent US4039540A, “3-Substituted quinoxaline-2-carboxamide-1,4-dioxides” (Pfizer Inc., priority 1975, dated 1977).

Test [1] relates to E. coli. The test is described as follows: in vitro antibacterial activity, two-fold serial dilution in Brain-Heart Infusion Broth (MIC). In kind it is cell-based. Conditions: Escherichia coli, overnight, anaerobic. As for the experimental part:
(§1) The broth is inoculated with bacteria and with the test quinoxaline-1,4-dioxide and then it is incubated overnight under anerobic conditions. On the next day, the test is read visually. The minimum inhibitory concentration (MIC) of test compound is the lowest concentration which prevents turbidity, i.e., which prevents growth of the microorganism.
(§2) In vitro and in vivo activity of representative compounds of this invention, determined as aforesaid, are reported in the following tabulation for compounds of the formula: [drawing 12]

Test [2] concerns Strep. pyrogens. The description is as above. It counts as cell-based. Conditions: overnight, anaerobic. The method, then:
as §1, §2

The test system of test [3] is pathogenic bacteria. The test is described as follows: in vivo activity in infected mice, last four lines of the table. Conditions: bacterium and dose in drawing 28, not readable; for IN VIVO number of survivors among the treated animals (head drawing 28): subcutaneous. As for the experimental part:
(§3) In determining the in vivo activity of the quinoxaline-1,4-dioxides of this invention, the test compound is administered to mice which have been infected by […] injection of a lethal inoculum of pathogenic bacteria. The test compound is administered using a multiple dosing regimen and using either the oral (PO) or the subcutaneous (SC) route. The inoculum of bacteria varies from about 1 to about 10 times the amount needed to kill 100% of the mice under the conditions of the test. At the end of the test, the activity of the compound is assessed by counting the number of survivors among the treated animals.
as §2

The subject of test [4] is Strep. pyogenes. Kind of test: in vivo activity in mice infected with a lethal inoculum of Strep. pyogenes. The following applies: Streptococcus pyogenes, multiple dosing. As for the experimental part:
as §3, §2

In test [5] the test system is E. coli. Kind of test: in vivo activity in mice infected with a lethal inoculum of E. coli. The following applies: Escherichia coli, sc, subcutaneous, multiple dosing, read-out: IN VIVO E. coli, number of survivors among the treated animals. The method, then:
as §3, §2

[6] abbreviates: oral, read-out: IN VIVO Strep. pyogenes, number of survivors among the treated animals, PO (data in parenthesis).
Setting [7] is: sc, subcutaneous, read-out: IN VIVO Strep. pyogenes, number of survivors among the treated animals.

The compound `CN(C)C(=O)c1c(CS(=O)(=O)CCCCN2CCCCC2)[n+]([O-])c2ccccc2[n+]1[O-]` [N(CH3)2; drawing 30; H] showed an MIC in test [1] of 12.5 µg/mL (≈ 27.7 µM). The compound also had an MIC in test [2] of 6.25 µg/mL (≈ 13.9 µM). In addition, in test [3], the “IN VIVO number of survivors among the treated animals, PO (data in parenthesis; head drawing 28)” value is on record as 1/10 and the “IN VIVO number of survivors among the treated animals (head drawing 28)” value (from here on “IN VIVO number … (head drawing 28)”) was 8/10.

Compound `NC(=O)c1c(CS(=O)(=O)CCCCN2CCCCC2)[n+]([O-])c2ccccc2[n+]1[O-]` [NH2; drawing 31; H] returned an MIC in test [1] of 25 µg/mL (≈ 59.2 µM). This compound had an MIC in test [2] of 12.5 µg/mL (≈ 29.6 µM). In test [3], the “IN VIVO number of survivors among the treated animals, PO (data in parenthesis; head drawing 28)” value is reported as 0/10 and the “IN VIVO number … (head drawing 28)” value is on record as 9/10.

As to `CCNC(=O)c1c(CS(=O)(=O)CCCCN2CCCCC2)[n+]([O-])c2ccccc2[n+]1[O-]` [NHCH2 CH3; drawing 32; H], in test [1], the MIC was determined as 12.5 µg/mL (≈ 27.7 µM). The MIC in test [2] amounted to 6.25 µg/mL (≈ 13.9 µM). Moreover, in test [3], the “IN VIVO number of survivors among the treated animals, PO (data in parenthesis; head drawing 28)” value is reported as 7/10 and the “IN VIVO number … (head drawing 28)” value is 4/10.

Regarding `CNC(=O)c1c(CS(=O)(=O)CCCCN2CCCCC2)[n+]([O-])c2ccccc2[n+]1[O-]` [NHCH3; drawing 29; H], in test [1], the MIC is 12.5 µg/mL (≈ 28.6 µM). In test [2], the MIC turned out to be 6.25 µg/mL (≈ 14.3 µM). Besides, in test [3], the “IN VIVO number of survivors among the treated animals, PO (data in parenthesis; head drawing 28)” value is recorded as 7/10 and the “IN VIVO number … (head drawing 28)” value is listed as 10/10.

`CNC(=O)c1c(CSCCO)[n+]([O-])c2ccccc2[n+]1[O-]` [NHMe; SCH2 CH2 OH; H]: the MIC in test [1] and in test [2] was 0.781 µg/mL (≈ 2.52 µM) in each case. In addition, the responders at 50 mg/kg in test [4] (setting [6]) worked out at 60%; in test [4] (setting [7]), 100%. In addition, the responders at 25 mg/kg in test [5] turned out to be 100%.

Regarding `CNC(=O)c1c(CS(=O)(=O)CCCO)[n+]([O-])c2ccccc2[n+]1[O-]` [NHMe; SO2 CH2 CH2 CH2 OH; H], the values for the MIC in test [1] and in test [2] were 12.5 µg/mL (≈ 35.2 µM) and 3.12 µg/mL (≈ 8.79 µM), respectively. Moreover, the results for the responders at 50 mg/kg in test [4] (setting [6]) and in test [4] (setting [7]) were 30% and 90%, respectively. Further, the responders at 25 mg/kg in test [5] worked out at 70%.

`CCCNC(=O)c1c(CSCCO)[n+]([O-])c2ccccc2[n+]1[O-]` [NHPr; SCH2 CH2 OH; H]: the MIC in test [1] was found to be 25 µg/mL (≈ 74.1 µM); in test [2], 6.25 µg/mL (≈ 18.5 µM). For the same compound, the responders at 50 mg/kg in test [4] (setting [6]) was 30%; in test [4] (setting [7]) it was 50%. Also, the responders at 25 mg/kg in test [5] is 20%.

`CCCNC(=O)c1c(CS(=O)(=O)CCO)[n+]([O-])c2ccccc2[n+]1[O-]` [NHPr; SO2 CH2 CH2 OH; H]: the MIC in test [1] and in test [2] was 3.12 µg/mL (≈ 8.46 µM) each time. In addition, the responders at 50 mg/kg in test [4] (setting [6]) was 70%; in test [4] (setting [7]) it was 40%. In test [5], the responders at 25 mg/kg turned out to be 20%.

As a reminder, the MIC is the smallest concentration in the dilution series that meets the test's criterion for growth inhibition. Read a low MIC as inhibition by little substance.
